# ChEMBL document CHEMBL1201862, “PubChem BioAssay data set” (2004)
# Activity calls are given as the source filed them.
# Legend:
# [1] = target: T1, Type-1 angiotensin II receptor (Homo sapiens, UniProt P30556); assay: agonist activity at AGTR1 – cell-based, uHTS hits, selectivity assay for APJ receptor agonist project, dose response (AID 488865); format: functional;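 note: beta-arrestin recruitment to AT1 measured by enzyme fragment complementation luminescence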
# T1 sequence (P30556 whole entry): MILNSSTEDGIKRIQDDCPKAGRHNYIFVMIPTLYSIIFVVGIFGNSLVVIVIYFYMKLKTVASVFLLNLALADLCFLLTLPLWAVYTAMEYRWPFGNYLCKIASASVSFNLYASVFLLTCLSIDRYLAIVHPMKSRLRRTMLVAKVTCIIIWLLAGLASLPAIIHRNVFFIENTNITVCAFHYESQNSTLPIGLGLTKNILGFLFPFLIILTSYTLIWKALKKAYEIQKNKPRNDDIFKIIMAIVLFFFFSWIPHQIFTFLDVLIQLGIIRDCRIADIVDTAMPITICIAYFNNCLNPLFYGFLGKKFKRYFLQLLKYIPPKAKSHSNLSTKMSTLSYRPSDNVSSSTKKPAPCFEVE
# [2] = Luminescence Cell-Based Dose Response HTS to Identify Inhibitors of 5'UTR Stem-Loop Driven Prion Protein mRNA Translation in H4 Neuroglioblastoma Cells. [Related pubchem assays: 1827 (Project Summary), 1813 (Primary HTS)]; format: functional
# [3] = alpha-synuclein stem-loop translation blockers – luminescence, H4 neuroglioblastoma cells, dose confirmation, confirmation (AID 2454); format: functional, cell-based;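 note: H4 neuroglioblastoma cells carrying an alpha-synuclein 5'UTR luciferase reporter; potency for inhibition of the luciferase signal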
# [4] = luciferase reporter signal reduction – luminescence, H4-C neuroglioblastoma cells, dose response (AID 2458); format: functional, cell-based;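 note: H4 neuroglioblastoma cells stably carrying a luciferase reporter gene fusion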
# [5] = luciferase reporter signal suppression in cells – H4 neuroglioma cells, luminescence, dose response (AID 1990); format: functional, cell-based
# [6] = alpha-synuclein stem-loop luciferase translation blockers – H4 neuroglioma cells, luminescence, confirmation (AID 1988); format: functional, cell-based
# [7] = cells; format: functional, cell-based
# [8] = target: Heat shock protein HSP 90-alpha (Homo sapiens, UniProt P07900); format: functional, organism-based
# [9] = system: INS1; assay: INS-1E survival protection against cytokine death – cell-based, luminescence, retest, dose response (AID 449756); format: functional; settings: Rattus norvegicus;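 note: cell death triggered by IL-1 beta plus TNF-alpha plus IFN-gamma mixture; protective hits raise ATP signal compared with cytokine alone wells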
# [10] = system: Streptococcus sp. 'group A'; assay: Streptococcus pyogenes SK(-)GAS viability under kanamycin – luminescence, BacTiterGlo, confirmation, counter-screen for streptokinase expression inhibitor project, dose response (AID 1900); format: functional, organism-based
# [11] = system: Vero; assay: cells; format: functional; settings: Chlorocebus sabaeus
# [12] = target: T2, Kappa-type opioid receptor (Homo sapiens, UniProt P41145); format: functional
# [13] = target: T2, Kappa-type opioid receptor; format: functional; remark: listed apart in the source
# [14] = system: Streptococcus; assay: GAS UMAA2166 growth inhibition – luminescence, BacTiterGlo, counter-screen for streptokinase expression inhibitor project, dose response (AID 1915); format: functional, organism-based;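 note: potency for reduction of bacterial viability or growth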
# [15] = target: Beta-galactosidase (Escherichia coli, UniProt Q8VNN2); format: functional
# [16] = HEK-293T cell viability reduction – luminescence, B-cell screen hits, cytotoxicity control for BCR NF-kB inhibitor project, dose response (AID 489021); format: functional, cell-based;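 note: HEK-293T cells carrying an NF-kB luciferase reporter; cells exposed to compound for about 14 hours before viability readout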
# [17] = target: T3, Heat shock factor protein 1 (Mus musculus, UniProt P38532); assay: enhancement of HSF1-driven luciferase signal – cell-based, NIH3T3, luminescence, dose retest, confirmation (AID 435004); format: functional;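 note: stress induced by proteasome inhibitor MG132 added 30 min after compound; luciferase reporter driven by HSF1 response element in NIH3T3 cells; actives raise luminescence as potentiators of the MG132 stress response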
# T3 sequence (P38532 whole entry): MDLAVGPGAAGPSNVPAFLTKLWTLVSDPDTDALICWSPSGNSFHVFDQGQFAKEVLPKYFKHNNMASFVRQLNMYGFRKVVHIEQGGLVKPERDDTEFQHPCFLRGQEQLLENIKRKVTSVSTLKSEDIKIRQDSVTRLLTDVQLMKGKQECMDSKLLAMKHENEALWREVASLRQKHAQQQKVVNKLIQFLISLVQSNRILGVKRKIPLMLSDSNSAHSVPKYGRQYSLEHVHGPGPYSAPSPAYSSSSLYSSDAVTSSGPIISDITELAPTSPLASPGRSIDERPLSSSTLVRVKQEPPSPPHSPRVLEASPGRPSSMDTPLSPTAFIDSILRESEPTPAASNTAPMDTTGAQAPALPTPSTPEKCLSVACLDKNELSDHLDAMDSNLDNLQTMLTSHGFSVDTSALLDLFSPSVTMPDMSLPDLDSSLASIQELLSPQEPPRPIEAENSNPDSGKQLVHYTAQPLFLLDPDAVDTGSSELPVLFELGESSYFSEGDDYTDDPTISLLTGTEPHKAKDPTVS
# [18] = target: Hexokinase (Trypanosoma brucei, UniProt Q38C41); assay: Confirmation assay for inhibitors of Trypanosoma brucei hexokinase 1-Analogue-first series. [Related pubchem assays (depositor defined):AID1430, AID1632, AID2516, AID2560, AID2579, AID2600, AID449725, AID492951]; format: functional
# [19] = target: T4, Hexokinase HKDC1 (Homo sapiens, UniProt Q2TB90); assay: activation of HKDC1 glucose phosphorylation – biochemical, W721R variant, dose response (AID 504730); format: functional
# T4 sequence (Q2TB90 whole entry): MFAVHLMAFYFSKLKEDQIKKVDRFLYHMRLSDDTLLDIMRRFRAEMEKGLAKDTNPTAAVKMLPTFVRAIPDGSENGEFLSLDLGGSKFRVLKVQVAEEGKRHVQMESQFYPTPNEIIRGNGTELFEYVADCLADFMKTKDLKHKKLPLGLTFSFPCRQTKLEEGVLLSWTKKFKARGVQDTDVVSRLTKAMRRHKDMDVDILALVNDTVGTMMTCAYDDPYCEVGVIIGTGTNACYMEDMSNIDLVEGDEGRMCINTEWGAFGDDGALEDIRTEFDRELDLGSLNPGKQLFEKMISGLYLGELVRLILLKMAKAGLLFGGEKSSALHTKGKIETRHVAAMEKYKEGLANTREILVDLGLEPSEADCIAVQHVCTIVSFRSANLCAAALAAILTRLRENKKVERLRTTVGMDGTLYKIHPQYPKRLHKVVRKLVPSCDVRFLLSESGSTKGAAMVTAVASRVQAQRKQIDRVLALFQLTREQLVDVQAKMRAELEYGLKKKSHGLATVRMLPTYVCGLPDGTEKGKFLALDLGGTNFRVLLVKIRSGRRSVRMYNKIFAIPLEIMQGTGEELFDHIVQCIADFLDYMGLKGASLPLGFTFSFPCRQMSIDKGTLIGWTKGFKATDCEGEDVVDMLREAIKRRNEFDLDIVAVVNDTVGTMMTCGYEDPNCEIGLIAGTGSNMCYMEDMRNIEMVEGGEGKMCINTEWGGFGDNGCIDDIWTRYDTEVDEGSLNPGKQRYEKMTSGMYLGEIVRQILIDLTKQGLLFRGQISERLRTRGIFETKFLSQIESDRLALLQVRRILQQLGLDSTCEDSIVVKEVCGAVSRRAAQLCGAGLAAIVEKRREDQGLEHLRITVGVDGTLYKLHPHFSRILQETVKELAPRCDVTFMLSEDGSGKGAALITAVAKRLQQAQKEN
# [20] = target: T5, Sphingosine 1-phosphate receptor 4 (Homo sapiens, UniProt O95977); assay: Late-stage fluorescence dose response cell-based assay to identify agonists of the Sphingosine 1-Phosphate Receptor 4 (S1P4): purchased compounds EC50. [Related pubchem assays (depositor defined):AID1509, AID1523, AID1563, AID1686, AID1701, AID1801]; format: functional
# T5 sequence (O95977 whole entry): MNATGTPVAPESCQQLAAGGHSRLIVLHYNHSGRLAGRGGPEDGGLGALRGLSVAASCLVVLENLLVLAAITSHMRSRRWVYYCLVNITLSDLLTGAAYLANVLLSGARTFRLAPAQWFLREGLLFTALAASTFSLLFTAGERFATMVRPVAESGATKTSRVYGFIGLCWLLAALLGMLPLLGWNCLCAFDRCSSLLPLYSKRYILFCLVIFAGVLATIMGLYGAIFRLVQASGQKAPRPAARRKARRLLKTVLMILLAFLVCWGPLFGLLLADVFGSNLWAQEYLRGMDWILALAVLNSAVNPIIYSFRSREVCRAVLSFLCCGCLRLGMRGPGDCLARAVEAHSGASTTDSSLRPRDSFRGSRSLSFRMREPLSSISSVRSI
# [21] = target: Bcl-2-like protein 10 (Homo sapiens, UniProt Q9HD36); assay: Bcl-B/TR3 peptide binding disruption – biochemical, fluorescence polarization, FITC-TR3 peptide, selectivity assay for Bfl-1 inhibitor project, primary screen (AID 748);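 note: fluorescence polarization from a fluorescein-labelled TR3 peptide binding purified Bcl-B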
# [22] = target: Lysosomal acid glucosylceramidase (Homo sapiens, UniProt P04062); assay: Dose response cell-based high throughput screening assay to identify enhancers of beta-glucosidase activity. [Related pubchem assays: 784 ]; format: functional
# [23] = target: T6, G-protein coupled receptor 55 (Homo sapiens, UniProt Q9Y2T6); assay: selective activators of receptor GPR55 – imaging, U2OS cells, beta-arrestin-GFP redistribution, primary screen (AID 1961); format: functional
# [24] = target: T7, Cannabinoid receptor 2 (Homo sapiens, UniProt P34972); assay: SAR analysis of antagonists of the Cannabinoid Receptor 2 using an Image-Based Assay - Set 2. [Related pubchem assays (depositor defined):AID1961, AID1965]; format: functional
# [25] = target: T6, G-protein coupled receptor 55; assay: SAR analysis of selective Agonists of GPR55 using an Image-Based Assay. [Related pubchem assays (depositor defined):AID1961, AID1965]; format: functional
# [26] = target: Cannabinoid receptor 1 (Homo sapiens, UniProt P21554); assay: SAR analysis of antagonists of the Cannabinoid Receptor 1 using an Image-Based Assay. [Related pubchem assays (depositor defined):AID1961, AID1965]; format: functional
# [27] = target: T7, Cannabinoid receptor 2; assay: SAR analysis of agonists of the Cannabinoid Receptor 2 using an Image-Based Assay - Set 2. [Related pubchem assays (depositor defined):AID1961, AID1965]; format: functional
# [28] = target: Intestinal-type alkaline phosphatase (Mus musculus, UniProt P24822); assay: PubChem AID 488785; format: functional
# [29] = target: Intestinal-type alkaline phosphatase (Homo sapiens, UniProt P09923); assay: activation of human intestinal alkaline phosphatase – biochemical, dose response (AID 488873); format: functional
# [30] = target: FAD-linked sulfhydryl oxidase ALR (Homo sapiens, UniProt P55789); assay: ALR-catalysed DTT oxidation blockers – biochemical, H2O2 detection, luminescence, cherry-pick, dose response (AID 493248)
# [31] = target: T8, Alkaline phosphatase, tissue-nonspecific isozyme (Homo sapiens, UniProt P05186); assay: TNAP enzyme inhibition by screening hits, dose response, selectivity assay for mouse IAP inhibitor project, biochemical, human TNAP, uHTS hits (AID 488906); format: functional
# T8 sequence (P05186 whole entry): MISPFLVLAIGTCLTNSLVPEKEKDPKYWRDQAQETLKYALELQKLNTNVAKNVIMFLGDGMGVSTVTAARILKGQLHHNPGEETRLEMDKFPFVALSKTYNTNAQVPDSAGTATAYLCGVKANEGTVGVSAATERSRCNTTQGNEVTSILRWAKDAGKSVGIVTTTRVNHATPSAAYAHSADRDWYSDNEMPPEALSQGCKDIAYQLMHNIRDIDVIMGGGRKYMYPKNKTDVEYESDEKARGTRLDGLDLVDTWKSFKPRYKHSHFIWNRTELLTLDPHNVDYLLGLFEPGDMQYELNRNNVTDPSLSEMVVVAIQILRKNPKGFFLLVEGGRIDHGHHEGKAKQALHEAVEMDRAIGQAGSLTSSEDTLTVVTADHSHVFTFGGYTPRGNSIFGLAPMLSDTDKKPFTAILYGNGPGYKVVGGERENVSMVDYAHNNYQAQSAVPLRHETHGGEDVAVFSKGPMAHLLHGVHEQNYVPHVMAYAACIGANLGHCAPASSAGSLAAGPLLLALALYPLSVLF
# T7 sequence (P34972 whole entry): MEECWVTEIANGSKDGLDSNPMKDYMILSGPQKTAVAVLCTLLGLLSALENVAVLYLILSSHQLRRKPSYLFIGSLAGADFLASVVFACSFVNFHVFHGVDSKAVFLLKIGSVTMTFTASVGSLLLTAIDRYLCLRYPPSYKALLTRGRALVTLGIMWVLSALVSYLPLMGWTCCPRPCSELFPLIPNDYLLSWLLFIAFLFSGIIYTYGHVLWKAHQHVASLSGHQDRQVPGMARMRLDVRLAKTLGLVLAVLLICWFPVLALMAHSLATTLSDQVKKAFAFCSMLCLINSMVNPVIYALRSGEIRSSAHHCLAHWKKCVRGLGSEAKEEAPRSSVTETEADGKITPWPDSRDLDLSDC
# Sequence of Hexokinase (Q38C41 whole entry): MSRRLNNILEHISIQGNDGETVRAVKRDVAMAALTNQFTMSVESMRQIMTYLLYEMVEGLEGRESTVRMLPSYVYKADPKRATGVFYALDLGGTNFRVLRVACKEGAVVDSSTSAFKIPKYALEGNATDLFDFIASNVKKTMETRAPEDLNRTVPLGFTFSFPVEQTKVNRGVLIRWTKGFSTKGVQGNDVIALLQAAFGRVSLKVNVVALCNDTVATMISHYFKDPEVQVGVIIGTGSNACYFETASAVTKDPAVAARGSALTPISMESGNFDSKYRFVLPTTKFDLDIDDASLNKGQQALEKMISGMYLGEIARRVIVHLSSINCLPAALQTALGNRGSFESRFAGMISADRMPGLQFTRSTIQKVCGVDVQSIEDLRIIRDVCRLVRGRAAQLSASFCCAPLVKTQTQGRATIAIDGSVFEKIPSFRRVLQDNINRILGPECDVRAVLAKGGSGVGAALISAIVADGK
# T6 sequence (Q9Y2T6 whole entry): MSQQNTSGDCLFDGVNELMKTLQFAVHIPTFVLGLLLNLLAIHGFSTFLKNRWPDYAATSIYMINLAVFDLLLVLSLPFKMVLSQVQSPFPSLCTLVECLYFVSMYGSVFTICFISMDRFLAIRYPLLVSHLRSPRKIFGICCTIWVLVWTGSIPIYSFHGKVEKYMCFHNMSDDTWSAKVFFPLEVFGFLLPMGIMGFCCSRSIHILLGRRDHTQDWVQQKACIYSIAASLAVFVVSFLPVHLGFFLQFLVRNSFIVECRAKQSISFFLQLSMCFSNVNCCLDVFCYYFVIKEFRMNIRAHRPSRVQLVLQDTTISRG
# T2 sequence (P41145 whole entry): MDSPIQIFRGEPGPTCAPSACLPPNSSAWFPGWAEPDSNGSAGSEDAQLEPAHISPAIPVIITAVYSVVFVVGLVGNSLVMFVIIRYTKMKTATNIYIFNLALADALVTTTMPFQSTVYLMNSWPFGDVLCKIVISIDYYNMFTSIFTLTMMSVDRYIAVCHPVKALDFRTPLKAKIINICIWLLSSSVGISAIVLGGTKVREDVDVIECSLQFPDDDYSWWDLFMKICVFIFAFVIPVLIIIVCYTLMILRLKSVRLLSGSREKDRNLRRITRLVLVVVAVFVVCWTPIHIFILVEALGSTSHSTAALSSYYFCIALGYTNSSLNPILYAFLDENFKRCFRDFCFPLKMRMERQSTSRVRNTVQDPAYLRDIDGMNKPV
# Sequence of Lysosomal acid glucosylceramidase (P04062 whole entry): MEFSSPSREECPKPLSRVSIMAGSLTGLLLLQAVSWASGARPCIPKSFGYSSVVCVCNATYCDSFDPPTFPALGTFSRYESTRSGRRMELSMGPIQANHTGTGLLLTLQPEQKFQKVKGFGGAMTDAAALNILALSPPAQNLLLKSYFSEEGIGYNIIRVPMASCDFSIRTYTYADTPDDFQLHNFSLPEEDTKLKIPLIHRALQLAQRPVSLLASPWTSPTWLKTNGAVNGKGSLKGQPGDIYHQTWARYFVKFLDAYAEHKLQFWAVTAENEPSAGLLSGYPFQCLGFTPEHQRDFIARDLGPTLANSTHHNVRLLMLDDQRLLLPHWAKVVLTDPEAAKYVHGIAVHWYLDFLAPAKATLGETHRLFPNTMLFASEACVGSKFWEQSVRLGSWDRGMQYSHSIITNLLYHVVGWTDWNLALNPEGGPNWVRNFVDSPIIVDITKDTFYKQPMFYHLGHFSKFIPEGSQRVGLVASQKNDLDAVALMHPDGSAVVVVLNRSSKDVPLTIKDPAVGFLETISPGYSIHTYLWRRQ
# Sequence of Cannabinoid receptor 1 (P21554 whole entry): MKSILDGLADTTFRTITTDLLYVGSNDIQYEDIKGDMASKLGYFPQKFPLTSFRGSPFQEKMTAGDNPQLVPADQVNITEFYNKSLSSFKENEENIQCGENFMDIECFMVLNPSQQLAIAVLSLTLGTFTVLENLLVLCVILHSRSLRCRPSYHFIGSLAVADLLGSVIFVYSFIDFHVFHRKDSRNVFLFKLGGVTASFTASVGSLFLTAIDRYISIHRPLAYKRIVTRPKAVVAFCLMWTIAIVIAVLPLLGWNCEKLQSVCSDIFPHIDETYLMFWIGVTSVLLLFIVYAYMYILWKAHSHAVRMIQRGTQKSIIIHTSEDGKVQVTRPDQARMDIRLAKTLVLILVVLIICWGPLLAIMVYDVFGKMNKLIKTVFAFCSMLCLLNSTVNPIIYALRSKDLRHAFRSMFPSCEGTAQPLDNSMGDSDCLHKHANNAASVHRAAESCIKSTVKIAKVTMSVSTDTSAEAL
# Sequence of Beta-galactosidase (Q8VNN2 whole entry): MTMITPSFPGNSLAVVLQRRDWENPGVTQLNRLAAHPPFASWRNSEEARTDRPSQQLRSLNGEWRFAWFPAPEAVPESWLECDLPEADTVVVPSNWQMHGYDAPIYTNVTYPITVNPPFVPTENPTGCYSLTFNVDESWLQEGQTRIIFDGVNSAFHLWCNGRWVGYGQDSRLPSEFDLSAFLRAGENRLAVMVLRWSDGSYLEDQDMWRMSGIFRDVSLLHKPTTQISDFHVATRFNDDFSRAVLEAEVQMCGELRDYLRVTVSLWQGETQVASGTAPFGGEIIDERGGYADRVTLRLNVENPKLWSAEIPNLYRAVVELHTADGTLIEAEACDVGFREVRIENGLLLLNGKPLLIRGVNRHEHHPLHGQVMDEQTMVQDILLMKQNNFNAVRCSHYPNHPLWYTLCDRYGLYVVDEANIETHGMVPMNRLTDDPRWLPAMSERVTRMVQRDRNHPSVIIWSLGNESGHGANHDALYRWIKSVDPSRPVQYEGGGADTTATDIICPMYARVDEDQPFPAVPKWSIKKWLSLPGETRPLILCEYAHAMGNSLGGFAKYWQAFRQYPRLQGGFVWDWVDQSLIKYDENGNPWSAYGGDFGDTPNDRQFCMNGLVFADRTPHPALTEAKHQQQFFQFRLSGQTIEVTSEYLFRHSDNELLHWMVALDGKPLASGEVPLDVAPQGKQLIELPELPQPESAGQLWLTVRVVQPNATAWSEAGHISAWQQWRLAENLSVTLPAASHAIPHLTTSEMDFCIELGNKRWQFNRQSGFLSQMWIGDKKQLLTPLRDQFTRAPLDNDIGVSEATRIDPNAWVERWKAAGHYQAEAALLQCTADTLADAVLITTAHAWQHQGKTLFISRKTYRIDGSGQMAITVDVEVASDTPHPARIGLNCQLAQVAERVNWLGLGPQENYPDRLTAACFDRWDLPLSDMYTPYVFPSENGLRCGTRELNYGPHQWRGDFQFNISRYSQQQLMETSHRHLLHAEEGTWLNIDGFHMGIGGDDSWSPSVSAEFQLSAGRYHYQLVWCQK
# Sequence of FAD-linked sulfhydryl oxidase ALR (P55789 whole entry): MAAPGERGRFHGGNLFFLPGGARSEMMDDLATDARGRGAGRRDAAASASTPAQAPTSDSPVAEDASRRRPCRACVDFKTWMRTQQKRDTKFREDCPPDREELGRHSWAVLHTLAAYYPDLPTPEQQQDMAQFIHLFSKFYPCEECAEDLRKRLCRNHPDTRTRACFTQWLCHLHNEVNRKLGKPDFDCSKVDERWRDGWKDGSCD
# Sequence of Intestinal-type alkaline phosphatase (Homo sapiens, UniProt P09923) (P09923 whole entry): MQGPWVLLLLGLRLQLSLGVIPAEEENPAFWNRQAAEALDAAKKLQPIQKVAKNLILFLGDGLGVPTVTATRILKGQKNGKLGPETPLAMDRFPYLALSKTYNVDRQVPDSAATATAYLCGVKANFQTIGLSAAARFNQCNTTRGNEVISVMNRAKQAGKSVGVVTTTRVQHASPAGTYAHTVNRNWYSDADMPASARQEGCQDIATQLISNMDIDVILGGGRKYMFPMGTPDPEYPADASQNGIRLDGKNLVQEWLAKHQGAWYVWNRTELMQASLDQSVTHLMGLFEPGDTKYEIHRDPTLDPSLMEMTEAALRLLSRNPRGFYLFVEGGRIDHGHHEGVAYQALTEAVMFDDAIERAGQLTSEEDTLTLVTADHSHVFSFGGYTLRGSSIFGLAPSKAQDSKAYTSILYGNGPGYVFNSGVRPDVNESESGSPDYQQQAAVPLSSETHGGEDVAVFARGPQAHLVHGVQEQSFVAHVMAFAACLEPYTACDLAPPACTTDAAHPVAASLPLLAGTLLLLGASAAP
# Sequence of Intestinal-type alkaline phosphatase (Mus musculus, UniProt P24822) (P24822 whole entry): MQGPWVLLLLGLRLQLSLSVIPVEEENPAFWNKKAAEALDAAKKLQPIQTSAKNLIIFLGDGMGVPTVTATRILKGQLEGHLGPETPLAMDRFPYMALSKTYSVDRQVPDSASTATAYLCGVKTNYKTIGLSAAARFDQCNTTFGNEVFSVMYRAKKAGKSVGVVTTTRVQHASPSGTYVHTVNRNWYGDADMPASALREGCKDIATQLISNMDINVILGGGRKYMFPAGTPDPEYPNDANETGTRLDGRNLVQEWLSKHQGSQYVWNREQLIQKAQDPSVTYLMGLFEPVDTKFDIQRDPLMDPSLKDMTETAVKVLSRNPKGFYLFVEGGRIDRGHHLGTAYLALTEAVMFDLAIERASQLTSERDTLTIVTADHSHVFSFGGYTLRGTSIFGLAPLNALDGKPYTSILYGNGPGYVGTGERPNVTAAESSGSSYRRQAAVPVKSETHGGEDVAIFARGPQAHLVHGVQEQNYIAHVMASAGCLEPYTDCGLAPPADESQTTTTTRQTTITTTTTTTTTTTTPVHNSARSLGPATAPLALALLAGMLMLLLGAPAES
smiles,measurement,setting,value
O=C(Cn1ncc2c3ccccc3nc-2c1O)Nc1ccc(CN2CCCCC2)cc1,EC50,[1],> 100 µM (inactive)
O=Cc1cn(Cc2ccc([N+](=O)[O-])cc2)c2ccccc12,EC50,[2],< 0.1 µM (active)
same,EC50,[3],1.02 µM (active)
same,EC50,[4],1.25 µM (active)
same,EC50,[5],5.79 µM (active)
same,EC50,[6],0.233 µM (active)
same,EC50,[7],0.466 µM (active)
COc1ccc(N=Nc2ccc(O)c3ncccc23)cc1,EC50,[2],6.71 µM (active)
same,AC50,[8],3.34 µM (active)
same,AC50,[9],1.16 µM (active)
same,EC50,[3],> 12 µM (not active)
same,EC50,[10],0.191 µM (active)
same,CC50,[11],6.3 µM (active)
same,EC50,[4],> 12 µM (not active)
same,EC50,[5],8.21 µM (active)
same,IC50,[12],5.64 µM (active)
same,IC50,[13],> 32 µM
same,EC50,[14],2.5 µM (active)
same,EC50,[6],< 0.1 µM (active)
same,EC50,[15],24.6 µM (active)
same,EC50,[7],1.65 µM (active)
COc1ccc(C(=O)n2nc(-c3ccc(Cl)cc3)nc2N)cc1OC,IC50,[16],> 80 µM (inactive)
same,EC50,[17],> 260 µM (inconclusive)
O=c1c2cc(F)c(F)cc2sn1-c1ccccc1,IC50,[18],2.23 µM (active)
Cc1cc(Oc2ccc(C(C)(C)C)cc2)nc(N2CCOCC2)n1,EC50,[19],> 80 µM (inactive)
Cc1ccc(OC(C)C(=O)Nc2cc(Cl)ccc2Cl)c([N+](=O)[O-])n1 (stereo unspecified),EC50,[20],> 50 µM (inactive)
Cc1ccc(OCCC(=O)OCC(=O)Nc2ccc(Cl)cn2)cc1,IC50,[21],72.8 µM (inactive)
CCCc1cc(O)nc(SCC(=O)CSc2nc(O)cc(CCC)n2)n1,EC50,[22],> 50 µM (not active)
COc1cc2c(cc1NC(=O)CSc1ccccc1)oc1ccccc12,EC50,[23],0.671 µM (active)
same,IC50,[24],> 32 µM (inactive)
same,EC50,[25],0.627 µM (active)
same,IC50,[26],> 32 µM (inactive)
same,EC50,[27],> 32 µM (inactive)
C/N=C1/SC(CC(=O)Nc2cccc(C(F)(F)F)c2)C(=O)N1C (stereo unspecified),EC50,[22],> 50 µM (not active)
CCc1ccc(C(=O)Nc2cc(Cl)ccc2C(=O)OC)cc1,IC50,[18],> 25 µM (inactive)
Cc1ccc(C)c(S(=O)(=O)Nc2ccc(O)c(Sc3nnc[nH]3)c2)c1,IC50,[28],2.75 µM (active)
same,EC50,[29],11.9 µM (active)
same,AC50,[30],2.05 µM (active)
same,IC50,[31],5.46 µM (active)
Cc1cc(C)cc(OCCOc2ccc(C)nc2[N+](=O)[O-])c1,EC50,[20],> 50 µM (inactive)
COc1ccc(-c2nn(C)c(=O)c3ccccc23)cc1NS(C)(=O)=O,IC50,[16],> 80 µM (inactive)
